The test system of assay [1] is MLL-AF9 AML. As to the kind of experiment: In vitro growth of MLL-AF9 AML. It counts as cell-based, mouse. As to conditions: for effect of inhibitor on in vitro growth of MLL-AF9 with MCT4-KO: combined with MCT4-KO versus control gRNA (FIG. 6D). On the procedure:
Retroviral transduction model of MLL-AF9 or HoxA9-Meis1 AML were generated by infecting normal mouse GMP (Lin^−Kit^+Sca-1^−CD34^+CD16/32^+) (FASC antibodies summarized in Supplemental Table 4) by MSCV constructs. Infected cells were injected into normal C57BL/6J. Leukemic BM was harvested and expanded ex vivo in RPMI-1640 media supplemented with 10% FBS, 1% P/S, recombinant IL-3 (10 ng/ml) and SCF (100 ng/ml).

Assay [2] relates to MCT4 expression in MLL-AF9 AML. As to the kind of experiment: MCT4 mRNA (Q-PCR) and protein (Western blot) expression in MLL-AF9 AML upon inhibitor treatment. Format: cell-based, mouse. As to conditions: MLL-AF9 AML in vitro (FIG. 9G). The method, then: Cells were lyzed in 1×RIPA lysis buffer (Cell Signaling) with protease and phosphatase inhibitors. Cell lysate was centrifuged at 13000 rpm for 10 mins. Supernatant was collected and denatured in SDS-loading buffer with boiling for 10 mins. Cell lysates were separated, transferred and blotted with primary and horseradish peroxidase (HRP)-conjugated secondary antibodies (Supplemental Table 4). Hybridization signals were visualized with Amersham ECL Western blot detection reagents (GE Healthcare Amersham) or Luminata Forte Western HRP substrate (EMD Millipore) and captured by Hyperfilm™ ECL (GE Healthcare Amersham). Densitometric analysis of the bands was performed by ImageJ 1.8.0v.
(§1) Cell was washed twice with PBS and subjected to RNA purification using RNeasy Plus Mini Kit (Qiagen) according to the manufacturers' protocol. Extracted total RNA was then subjected to reverse transcription using SuperScript IV VILO Master Mix (Thermo Fisher Scientific) according to the manufacturers' protocol. Synthesized cDNA was then used for the Q-PCR using gene-specific primers (Supplemental Table 3) and SYBR™ Green PCR Master Mix. The reaction was run and analyzed by StepOnePlus Real-Time PCR System.

The test system of assay [3] is MLL-AF9 AML. As to the kind of experiment: Glycolysis and Mito stress analysis (Seahorse ECAR/OCR). It counts as cell-based, mouse. The settings on record: MLL-AF9 AML in vitro, LDHA inhibition (FIG. 6A). The method, then: Glycolysis stress and Mito stress of normal Lin^− BM cells and AML were examined by Seahorse XF analyzer (Agilent) according to the manufacturers' protocol. In brief, the suspension cells were seeded onto a Cell-Tak (Corning) coated Seahorse XF Microplate in Seahorse XF Base Medium with appropriate supplement (Glycolysis Stress test: 1 mM glutamine; Mito stress test: 1 mM pyruvate, 2 mM glutamine and 10 mM glucose) and centrifuged at 200×g for 5 mins Different compounds were injected for the ECAR and OCR profiling (Glycolysis Stress test: 10 mM glucose, 1 μM Oligomycin and 50 mM 2DG; Mito Stress test: 1 μM Oligomycin, 0.5 μM FCCP and 0.5 μM Antimycin A). The data was eventually analyzed by Seahorse Wave Desktop 2.6 (Agilent).

In assay [4] the test system is MCT4 expression in NOMO-1. As to the kind of experiment: Q-PCR of MCT4 mRNA expression in NOMO-1. Format: cell-based, human. The settings on record: NOMO-1 (FIG. 10G).
Excerpt: (§2) Human AML cell lines (K562, KG1, ML2, Kasumi-1, MOLM-13, MOLM-14, MV4-11, THP-1, MONO-MACE, HL-60, NB4, U937 and NOMO-1) were purchased from the American Type Culture Collection (ATCC) and cultured in RPMI-1640 media supplemented with 10% FBS and 1% penicillin/streptomycin (P/S).
as §1

Assay [5] deals with MCT4 promoter in MLL-AF9 AML. As to the kind of experiment: ChIP-PCR of enrichment on MCT4 promoter in MLL-AF9 AML. It counts as cell-based, mouse. The method, then:
ChIP assays were performed in hematopoietic cells as previously described (Kim et al., 2008) using Pierce™ Protein G Agarose (Thermo Fisher Scientific). In brief, the cell suspension was fixed with 1% formaldehyde for 7 mins then neutralized by glycine. The fixed cell was washed with cold PBS. The cell pellet was then sonicated in SDS ChIP buffer. The supernatant was collected and pre-cleared with protein G agarose. After pre-clearing, a ChIP reaction using different antibodies (1:100, summarized in Supplemental Table 4) was added to the lysate and incubated at 4° C. overnight Immunoprecipitated complexes were successively washed with buffers and then eluted using SDS elution buffer at 65° C. overnight to reverse crosslink protein-DNA complex. The samples were treated with RNase A and Proteinase K, then extracted by phenol-chloroform isoamyl alcohol and precipitated. Finally, the pellet was resuspended in 20 μl TE buffer.
The DNA was then subjected to Q-PCR analysis using specific primers (Supplemental Table 3) and SYBR™ Green PCR Master Mix (Thermo Fisher Scientific). Input genomic DNA was used for the reference sample. The reaction was run and analyzed by StepOnePlus Real-Time PCR System (Thermo Fisher Scientific). Mouse or human Gfi1b was included as a negative control.

A further assay concerns MCT4 expression in THP-1. As to the kind of experiment: Q-PCR of MCT4 mRNA expression in THP-1. The settings on record: THP-1 (FIG. 10G). It counts as cell-based, human.
Excerpt: as §2, §1

A further assay relates to NOMO-1. As to the kind of experiment: In vitro growth of NOMO-1. Format: cell-based, human. As to conditions: NOMO-1 (FIG. 10H).
Excerpt: as §2

A further assay deals with THP-1. As to the kind of experiment: In vitro growth of THP-1. As to conditions: THP-1 (FIG. 10H). Format: cell-based, human.
Excerpt: as §2

Molecules are shown by their SMILES.

Here are results for five compounds from US20210214731A1, “METHODS FOR TREATING CANCER” (President and Fellows of Harvard College, priority 2019, published 2021).

Take `O=CC[C@@H](O)[C@H](O)[C@H](O)CO` [2DG, 2-deoxyglucose]: the “effect of inhibitor on in vitro growth of MLL-AF9 with MCT4-KO” value in the assay on MLL-AF9 AML [1] is “increased the effect”.
Turning to `NC(=O)c1ccc(N)nc1` [6AN, 6-aminonicotinamide], the “effect of inhibitor on in vitro growth of MLL-AF9 with MCT4-KO” value in the assay with MLL-AF9 AML [1] was “increased the effect”.
Turning to `CC(C)N(C[C@H]1O[C@@H](n2cnc3c(N)ncnc32)[C@H](O)[C@@H]1O)[C@H]1C[C@@H](CCc2nc3cc(C(C)(C)C)ccc3[nH]2)C1` [EPZ-5676], the MCT4 expression entry in assay [2] was “not seen”.
For `CCCc1c(O)c(O)c(C(=O)O)c2cc(Cc3ccccc3)c(C)cc12` [FX11], in the assay on MLL-AF9 AML [3], the “extracellular acidification rate (ECAR)” value is listed as “decreased” and the “oxygen consumption rate (OCR)” value was “increased”.
For the compound `Cc1sc2c(c1C)C(c1ccc(Cl)cc1)=N[C@@H](CC(=O)OC(C)(C)C)c1nnc(C)n1-2` [JQ-1], the “expression of MCT4” value (in assay [4]; in the assay on MCT4 expression in THP-1) was “suppressed” throughout. For the same compound, in the assay with MLL-AF9 AML [1] (JQ-1 treatment (FIG. 9H)), the “growth of MLL-AF9 AML” value was “reduced the growth of MLL-AF9 AML in dose dependent manner”. For the same compound, in assay [5] (mouse MLL-AF9 AML (FIG. 9I)), the “BRD4 enrichment on the MCT4 promoter” value is “reduced”. Besides, the “H3K27ac enrichment on the MCT4 promoter” value in assay [5] (mouse MLL-AF9 AML (FIG. 9J)) is “reduced”. Further, the growth result in the assay on NOMO-1 and in the assay with THP-1 was “suppressed” in each case. In assay [2], the MCT4 expression entry is “suppressed”.
